Source: PubChem BioAssay AID270 (DTP/NCI, 2004)
Values joined by “and” are separate entries in the source; they are usually repeats but may differ in a detail not shown here. Equal entries are not always repeated. Inconclusive results are not listed.

Test system: BDF1 mice, s.c. Lewis lung carcinoma, T/C %
Test: NCI In Vivo Anticancer Drug Screen. Data for tumor model Lewis Lung Carcinoma (subcutaneous) in B6D2F1 (BDF1) mice
Method in brief: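 First, mice carry a transplantable tumor. Next, groups receive either compound or vehicle. Finally, survival or tumor dimensions in the dosed animals are divided by the corresponding control figure.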

[1] = endpoint: median survival time, dose: 12.5 mg/kg/injection, schedule: Q01DX009 (ip), vehicle: saline with Tween-80, higher = longer survival
[2] = endpoint: median survival time, dose: 25.0 mg/kg/injection, schedule: Q01DX009 (ip), vehicle: saline with Tween-80, higher = longer survival
[3] = endpoint: mean tumor weight, dose: 5.0 mg/kg/injection, schedule: Q01DX011 (ip), vehicle: saline, higher = larger tumour

In the case of `COc1cc(NS(C)(=O)=O)ccc1Nc1c2ccc(Cl)cc2nc2c(OC)cccc12`, the T/C (endpoint: median survival time, dose: 2.3 mg/kg/injection, schedule: Q01DX009 (ip), vehicle: other, higher = longer survival) is reported as 118 % of control.
In the case of `NC(=S)N/N=C/c1ccc(O)cn1`, the T/C (endpoint: median survival time, dose: 18.8 mg/kg/injection, schedule: Q01DX009 (ip), vehicle: saline with Tween-80, higher = longer survival) is reported as 94 % of control, the T/C (endpoint: median survival time, dose: 37.5 mg/kg/injection, schedule: Q01DX009 (ip), vehicle: saline with Tween-80, higher = longer survival) is reported as 106 % of control and 119 % of control and the T/C (endpoint: median survival time, dose: 75.0 mg/kg/injection, schedule: Q01DX009 (ip), vehicle: saline with Tween-80, higher = longer survival) is reported as 97 % of control. The T/C (endpoint: median survival time, dose: 150.0 mg/kg/injection, schedule: Q01DX009 (ip), vehicle: saline with Tween-80, higher = longer survival) was 121 % of control.
With `C[C@H]1C[C@H]2[C@@H]3CC[C@](O)(C(=O)CO)[C@@]3(C)C[C@H](O)[C@]2(F)[C@@]2(C)C=CC(=O)C=C12` the T/C (endpoint: mean tumor weight, dose: 15.0 mg/kg/injection, schedule: Q01DX011 (sc), vehicle: steriod suspending solution, higher = larger tumour) was 44 % of control, the T/C (endpoint: mean tumor weight, dose: 30.0 mg/kg/injection, schedule: Q01DX011 (sc), vehicle: steriod suspending solution, higher = larger tumour) was 43 % of control and the T/C (endpoint: mean tumor weight, dose: 90.0 mg/kg/injection, schedule: Q01DX011 (sc), vehicle: steriod suspending solution, higher = larger tumour) was 12 % of control.
With `Nc1nc2c(ncn2C2OC(CO)C(O)C2N)c(=O)[nH]1` (centres undefined) the T/C (endpoint: median survival time, dose: 1.56 mg/kg/injection, schedule: Q01DX009 (ip), vehicle: saline, higher = longer survival) was 95 % of control, the T/C (endpoint: median survival time, dose: 3.12 mg/kg/injection, schedule: Q01DX009 (ip), vehicle: Klucel (hydroxypropylcellulose) (HPC), higher = longer survival) was 99 % of control and the T/C (endpoint: median survival time, dose: 3.13 mg/kg/injection, schedule: Q01DX009 (ip), vehicle: saline, higher = longer survival) was 91 % of control and 104 % of control. The T/C (endpoint: median survival time, dose: 6.25 mg/kg/injection, schedule: Q01DX009 (ip), vehicle: Klucel (hydroxypropylcellulose) (HPC), higher = longer survival) was 102 % of control, the T/C (endpoint: median survival time, dose: 6.25 mg/kg/injection, schedule: Q01DX009 (ip), vehicle: saline, higher = longer survival) was 97 % of control and the T/C (endpoint: median survival time, dose: 12.5 mg/kg/injection, schedule: Q01DX009 (ip), vehicle: Klucel (hydroxypropylcellulose) (HPC), higher = longer survival) was 102 % of control. For the same compound, the T/C [1] was 95 % of control, the T/C (endpoint: median survival time, dose: 12.5 mg/kg/injection, schedule: Q01DX009 (ip), vehicle: saline, higher = longer survival) was 98 % of control and the T/C (endpoint: median survival time, dose: 25.0 mg/kg/injection, schedule: Q01DX009 (ip), vehicle: Klucel (hydroxypropylcellulose) (HPC), higher = longer survival) was 90 % of control. The T/C [2] was 118 % of control, the T/C (endpoint: median survival time, dose: 25.0 mg/kg/injection, schedule: Q01DX009 (ip), vehicle: saline, higher = longer survival) was 94 % of control and the T/C (endpoint: median survival time, dose: 50.0 mg/kg/injection, schedule: Q01DX009 (ip), vehicle: saline with Tween-80, higher = longer survival) was 110 % of control.
In the case of `Oc1ccccc1/C=N/NC(=S)NC1CC2C=CC1C2` (centres undefined), the T/C (endpoint: median survival time, dose: 12.5 mg/kg/injection, schedule: Q01DX009 (ip), vehicle: olive oil, sesame oil, peanut oil, higher = longer survival) is reported as 94 % of control, the T/C (endpoint: median survival time, dose: 100.0 mg/kg/injection, schedule: Q01DX009 (ip), vehicle: olive oil, sesame oil, peanut oil, higher = longer survival) is reported as 91 % of control and the T/C (endpoint: median survival time, dose: 200.0 mg/kg/injection, schedule: Q01DX009 (ip), vehicle: olive oil, sesame oil, peanut oil, higher = longer survival) is reported as 87 % of control.
For `COC(=O)Nc1nc2ccc(C(=O)c3ccccc3)cc2[nH]1`, the T/C (endpoint: median survival time, dose: 2.0 mg/kg/injection, schedule: Q04DX003 (ip), vehicle: saline with Tween-80, higher = longer survival) was 89 % of control, the T/C (endpoint: median survival time, dose: 4.0 mg/kg/injection, schedule: Q04DX003 (ip), vehicle: saline with Tween-80, higher = longer survival) was 95 % of control and the T/C (endpoint: median survival time, dose: 8.0 mg/kg/injection, schedule: Q04DX003 (ip), vehicle: saline with Tween-80, higher = longer survival) was 98 % of control. The T/C (endpoint: median survival time, dose: 32.0 mg/kg/injection, schedule: Q04DX003 (ip), vehicle: saline with Tween-80, higher = longer survival) was 95 % of control and the T/C (endpoint: median survival time, dose: 64.0 mg/kg/injection, schedule: Q04DX003 (ip), vehicle: saline with Tween-80, higher = longer survival) was 102 % of control.
With `Nc1nc(SN=Nc2ccc(S(=O)(=O)O)cc2)c2[nH]cnc2n1` the T/C (endpoint: mean tumor weight, dose: 1.0 mg/kg/injection, schedule: Q01DX011 (ip), vehicle: saline, higher = larger tumour) was 78 % of control, the T/C [3] was 65 % of control and the T/C (endpoint: mean tumor weight, dose: 9.0 mg/kg/injection, schedule: Q01DX011 (ip), vehicle: saline, higher = larger tumour) was 40 % of control. For the same compound, the T/C (endpoint: mean tumor weight, dose: 15.0 mg/kg/injection, schedule: Q01DX011 (ip), vehicle: saline, higher = larger tumour) was 40 % of control.
`Nc1nc(SCc2ccccc2Cl)c2ncn(C3OC(CO)C(O)C3O)c2n1` (centres undefined) was tested, and the T/C (endpoint: mean tumor weight, dose: 6.3 mg/kg/injection, schedule: Q01DX011 (ip), vehicle: other, higher = larger tumour) was 56 % of control, the T/C (endpoint: mean tumor weight, dose: 12.5 mg/kg/injection, schedule: Q01DX011 (ip), vehicle: other, higher = larger tumour) was 55 % of control and the T/C (endpoint: mean tumor weight, dose: 25.0 mg/kg/injection, schedule: Q01DX011 (ip), vehicle: other, higher = larger tumour) was 49 % of control. The T/C (endpoint: mean tumor weight, dose: 50.0 mg/kg/injection, schedule: Q01DX011 (ip), vehicle: other, higher = larger tumour) was 28 % of control.
In the case of `CC(C)C[CH2][Pb]([Cl])([CH2]CC(C)C)[CH2]CC(C)C`, the T/C (endpoint: median survival time, dose: 0.25 mg/kg/injection, schedule: Q01DX009 (ip), vehicle: Klucel (hydroxypropylcellulose) (HPC), higher = longer survival) is reported as 112 % of control, the T/C (endpoint: median survival time, dose: 0.5 mg/kg/injection, schedule: Q01DX009 (ip), vehicle: Klucel (hydroxypropylcellulose) (HPC), higher = longer survival) is reported as 102 % of control and the T/C (endpoint: median survival time, dose: 1.0 mg/kg/injection, schedule: Q01DX009 (ip), vehicle: Klucel (hydroxypropylcellulose) (HPC), higher = longer survival) is reported as 93 % of control.
In the case of `Cc1ccc2c(Nc3ccc(NS(C)(=O)=O)cc3)c3ccccc3nc2c1C`, the T/C (endpoint: median survival time, dose: 10.0 mg/kg/injection, schedule: Q01DX009 (ip), vehicle: other, higher = longer survival) is reported as 98 % of control and the T/C (endpoint: median survival time, dose: 40.0 mg/kg/injection, schedule: Q01DX009 (ip), vehicle: other, higher = longer survival) is reported as 124 % of control.
For `CN(N=O)C(N)=O`, the T/C (endpoint: mean tumor weight, dose: 2.5 mg/kg/injection, schedule: Q01DX011 (ip), vehicle: saline, higher = larger tumour) was 78 % of control, the T/C [3] was 77 % of control and the T/C (endpoint: mean tumor weight, dose: 10.0 mg/kg/injection, schedule: Q01DX011 (ip), vehicle: saline, higher = larger tumour) was 57 % of control. The T/C (endpoint: mean tumor weight, dose: 20.0 mg/kg/injection, schedule: Q01DX011 (ip), vehicle: saline, higher = larger tumour) was 20 % of control.
With `C=C/C(C)=C/[C@H](C)C(=O)C[C@H](O)CC1CC(=O)NC(=O)C1` the T/C (endpoint: median survival time, dose: 6.25 mg/kg/injection, schedule: Q01DX009 (ip), vehicle: saline with Tween-80, higher = longer survival) was 95 % of control, the T/C [1] was 98 % of control and the T/C (endpoint: median survival time, dose: 12.5 mg/kg/injection, schedule: Q04DX003 (ip), vehicle: saline with Tween-80, higher = longer survival) was 98 % of control. For the same compound, the T/C [2] was 97 % of control, the T/C (endpoint: median survival time, dose: 25.0 mg/kg/injection, schedule: Q04DX003 (ip), vehicle: saline with Tween-80, higher = longer survival) was 111 % of control and the T/C (endpoint: median survival time, dose: 50.0 mg/kg/injection, schedule: Q04DX003 (ip), vehicle: saline with Tween-80, higher = longer survival) was 92 % of control. For the same compound, the T/C (endpoint: median survival time, dose: 100.0 mg/kg/injection, schedule: Q04DX003 (ip), vehicle: saline with Tween-80, higher = longer survival) was 101 % of control.
In the case of `O=C1CN=C(c2ccc[nH]2)c2cc(Cl)ccc2N1`, the T/C (endpoint: mean tumor weight, dose: 40.0 mg/kg/injection, schedule: Q01DX011 (ip), vehicle: other, higher = larger tumour) is reported as 112 % of control and the T/C (endpoint: mean tumor weight, dose: 120.0 mg/kg/injection, schedule: Q01DX011 (ip), vehicle: other, higher = larger tumour) is reported as 73 % of control and 90 % of control.
`CCC[C@H]1CCCCN1` was tested, and the T/C (endpoint: mean tumor weight, dose: 25.0 mg/kg/injection, schedule: Q01DX011 (ip), vehicle: saline, higher = larger tumour) was 88 % of control.
`CS(=O)(=O)OCC(O)C(O)COS(C)(=O)=O` (centres undefined) was tested, and the T/C (endpoint: mean tumor weight, dose: 125.0 mg/kg/injection, schedule: Q01DX011 (ip), vehicle: saline, higher = larger tumour) was 87 % of control, the T/C (endpoint: mean tumor weight, dose: 250.0 mg/kg/injection, schedule: Q01DX011 (ip), vehicle: saline, higher = larger tumour) was 77 % of control and the T/C (endpoint: mean tumor weight, dose: 500.0 mg/kg/injection, schedule: Q01DX011 (ip), vehicle: other, higher = larger tumour) was 75 % of control. For the same compound, the T/C (endpoint: mean tumor weight, dose: 500.0 mg/kg/injection, schedule: Q01DX011 (ip), vehicle: saline, higher = larger tumour) was 59 % of control, the T/C (endpoint: mean tumor weight, dose: 750.0 mg/kg/injection, schedule: Q01DX011 (ip), vehicle: other, higher = larger tumour) was 93 % of control and the T/C (endpoint: mean tumor weight, dose: 1000.0 mg/kg/injection, schedule: Q01DX011 (ip), vehicle: other, higher = larger tumour) was 55 % of control.
With `O=C(O)c1ccc(-c2ccccc2)cc1` the T/C (endpoint: mean tumor weight, dose: 60.0 mg/kg/injection, schedule: Q01DX011 (ip), vehicle: carboxymethylcellulose (CMC), higher = larger tumour) was 61 % of control, the T/C (endpoint: mean tumor weight, dose: 90.0 mg/kg/injection, schedule: Q01DX011 (ip), vehicle: carboxymethylcellulose (CMC), higher = larger tumour) was 80 % of control and the T/C (endpoint: mean tumor weight, dose: 135.0 mg/kg/injection, schedule: Q01DX011 (ip), vehicle: carboxymethylcellulose (CMC), higher = larger tumour) was 65 % of control. For the same compound, the T/C (endpoint: mean tumor weight, dose: 200.0 mg/kg/injection, schedule: Q01DX011 (ip), vehicle: carboxymethylcellulose (CMC), higher = larger tumour) was 33 % of control and 42 % of control.
`COC1=CC(=O)N(C(=O)C2CSC(C(CO)NC(=O)c3csc(/C=N/O)n3)=N2)C1` (centres undefined) was tested, and the T/C (endpoint: median survival time, dose: 100.0 mg/kg/injection, schedule: Q01DX009 (ip), vehicle: Klucel (hydroxypropylcellulose) (HPC), higher = longer survival) was 92 % of control and the T/C (endpoint: median survival time, dose: 200.0 mg/kg/injection, schedule: Q01DX009 (ip), vehicle: Klucel (hydroxypropylcellulose) (HPC), higher = longer survival) was 92 % of control.
In the case of `CN(CCC(=O)c1ccccc1)CCC(=O)c1ccccc1`, the T/C (endpoint: mean tumor weight, dose: 55.0 mg/kg/injection, schedule: Q01DX011 (ip), vehicle: other, higher = larger tumour) is reported as 91 % of control and the T/C (endpoint: mean tumor weight, dose: 83.0 mg/kg/injection, schedule: Q01DX011 (ip), vehicle: other, higher = larger tumour) is reported as 122 % of control.
